Converted amounts (≈) assume the structure as drawn. The source made the active and inactive calls. No cut-off for these calls is given here.
Experiments:
[1] = target: T1, Protein cereblon/Tyrosine-protein kinase Lck (Homo sapiens, UniProt P06239+Q96SW2); assay: PROTAC activity at HiBit-tagged LCK/CRBN in human KOPT-K1 cells assessed as induction of LCK degradation incubated for 6 hrs by Nano-Glo HiBiT assay; assay type: cell-based
[2] = system: KOPTK1; assay: Antiproliferative activity against human KOPT-K1 cells assessed as effect on cell viability measured for 72 hrs by celltiter glo assay; assay type: functional; conditions: read-out: LC50 (the source's name)
[3] = Metabolic stability in mouse liver microsomes assessed as half life in presence of NADPH by UPLC-MS/MS analysis; assay type: ADME, Microsome
[4] = target: T1, Protein cereblon/Tyrosine-protein kinase Lck; assay: PROTAC activity at HiBit-tagged LCK/CRBN in human KOPT-K1 cells assessed as induction of LCK degradation incubated for 6 hrs by Nano-Glo HiBiT assay relative to control; assay type: cell-based
Target sequence in this assay (P06239 2-509 limits assumed): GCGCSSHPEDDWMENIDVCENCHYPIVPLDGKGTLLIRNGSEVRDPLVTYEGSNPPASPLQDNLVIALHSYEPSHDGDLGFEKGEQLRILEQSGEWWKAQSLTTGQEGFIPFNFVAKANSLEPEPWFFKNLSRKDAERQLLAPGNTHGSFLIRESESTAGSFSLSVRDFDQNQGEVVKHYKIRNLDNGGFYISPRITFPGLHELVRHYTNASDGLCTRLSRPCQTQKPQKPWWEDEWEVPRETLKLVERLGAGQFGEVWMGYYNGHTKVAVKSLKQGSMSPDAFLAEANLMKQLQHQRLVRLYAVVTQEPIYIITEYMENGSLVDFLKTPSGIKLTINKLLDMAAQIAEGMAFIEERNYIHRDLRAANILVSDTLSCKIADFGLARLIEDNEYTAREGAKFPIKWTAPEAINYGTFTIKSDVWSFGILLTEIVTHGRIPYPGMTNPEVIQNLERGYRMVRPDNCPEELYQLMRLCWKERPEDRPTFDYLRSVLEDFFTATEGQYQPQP
Target sequence in this assay (Q96SW2 whole entry partner): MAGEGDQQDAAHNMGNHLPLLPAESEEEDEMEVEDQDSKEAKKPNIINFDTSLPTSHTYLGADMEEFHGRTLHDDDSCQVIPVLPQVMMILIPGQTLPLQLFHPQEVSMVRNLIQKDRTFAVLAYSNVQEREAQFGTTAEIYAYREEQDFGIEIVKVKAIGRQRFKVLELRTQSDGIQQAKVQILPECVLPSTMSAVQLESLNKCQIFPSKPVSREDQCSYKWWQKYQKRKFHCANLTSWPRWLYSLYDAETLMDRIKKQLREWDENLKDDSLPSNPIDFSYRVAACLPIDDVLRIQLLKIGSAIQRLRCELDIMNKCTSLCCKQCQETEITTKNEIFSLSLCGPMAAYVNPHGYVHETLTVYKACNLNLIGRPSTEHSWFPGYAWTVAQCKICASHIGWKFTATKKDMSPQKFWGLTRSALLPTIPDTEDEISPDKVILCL

[5] = Aqueous solubility of the compound incubated for 18 hrs by UPLC-SQDMS; assay type: physicochemical; conditions: buffer
[6] = system: KOPTK1; assay: Downregulation of CISH in human KOPT-K1 cells measured for 6 hrs by tandem mass tag proteomic assay; assay type: functional, cell-based
[7] = Oral bioavailability in CD-1 mouse at 30 mg/kg measured up to 24 hrs; assay type: ADME, organism-based; conditions: in vivo
[8] = system: KOPTK1; assay: Downregulation of GAK in human KOPT-K1 cells measured for 6 hrs by tandem mass tag proteomic assay; assay type: functional, cell-based
[9] = target: T1, Protein cereblon/Tyrosine-protein kinase Lck; assay: PROTAC activity at HiBit-tagged LCK/CRBN in human KOPT-K1 cells assessed as reduction in LCK level at 0.1 to 1000 nM incubated for 6 hrs immunoblotting analysis; assay type: cell-based; conditions: dose 0.1-1000 nM
Target sequence in this assay (P06239 2-509 limits assumed): as the sequence (P06239 2-509 limits assumed) above
Target sequence in this assay (Q96SW2 whole entry partner): as the sequence (Q96SW2 whole entry partner) above

[10] = Half life in CD-1 mouse at 30 mg/kg, po measured up to 24 hrs; assay type: ADME, organism-based; conditions: in vivo
[11] = Stability in CD-1 mouse plasma assessed as half life; assay type: ADME, cell-free
[12] = system: KOPTK1; assay: Downregulation of IKZF3 in human KOPT-K1 cells measured for 6 hrs by tandem mass tag proteomic assay; assay type: functional, cell-based
[13] = target: T1, Protein cereblon/Tyrosine-protein kinase Lck; assay: PROTAC activity at HiBit-tagged LCK/CRBN in human KOPT-K1 cells assessed as induction of LCK degradation at 0.1 to 1000 nM incubated for 6 hrs by Western blot analysis relative to control; assay type: cell-based; conditions: dose 0.1-1000 nM
Target sequence in this assay (P06239 2-509 limits assumed): as the sequence (P06239 2-509 limits assumed) above
Target sequence in this assay (Q96SW2 whole entry partner): as the sequence (Q96SW2 whole entry partner) above

[14] = system: Mus musculus; assay: In-vivo PROTAC activity at LCK/CRBN in NOD Cg-Prkdc scid Il2rg tmIWjl (NSG) mouse model assessed as reduction in LCK level in Bone marrow at 30 mg/kg, po measured for 6 hrs by Western blot analysis; assay type: functional; parameters: scale not given: the % may be the effect or the level left
[15] = Volume of distribution at steady state in CD-1 mouse at 3 mg/kg, iv measured up to 24 hrs; assay type: ADME, organism-based; conditions: in vivo, read-out: Vdss
[16] = system: KOPTK1; assay: Downregulation of YES1 in human KOPT-K1 cells measured for 6 hrs by tandem mass tag proteomic assay; assay type: functional, cell-based
[17] = system: KOPTK1; assay: Downregulation of SIK2 in human KOPT-K1 cells measured for 6 hrs by tandem mass tag proteomic assay; assay type: functional, cell-based
[18] = Cmax in CD-1 mouse at 30 mg/kg, po measured up to 24 hrs; assay type: ADME, organism-based; conditions: in vivo
[19] = system: KOPTK1; assay: Downregulation of GSPT1 in human KOPT-K1 cells measured for 6 hrs by tandem mass tag proteomic assay; assay type: functional, cell-based
[20] = Apparent permeability of compound across basolateral to apical side in human Caco-2 cells; assay type: ADME, cell-based
[21] = Efflux ratio of apparent permeability across basolateral to apical over apical to basolateral in human Caco-2 cells; assay type: ADME, cell-based
[22] = Apparent permeability of compound across apical to basolateral side in human Caco-2 cells; assay type: ADME, cell-based
[23] = system: KOPTK1; assay: Downregulation of CK1alpha in human KOPT-K1 cells measured for 6 hrs by tandem mass tag proteomic assay; assay type: functional, cell-based
[24] = Cmax in CD-1 mouse at 3 mg/kg, iv measured up to 24 hrs; assay type: ADME, organism-based; conditions: in vivo
[25] = Half life in CD-1 mouse at 3 mg/kg, iv measured up to 24 hrs; assay type: ADME, organism-based; conditions: in vivo
[26] = system: KOPTK1; assay: Downregulation of IKZF1 in human KOPT-K1 cells measured for 6 hrs by tandem mass tag proteomic assay; assay type: functional, cell-based
[27] = Clearance in CD-1 mouse at 30 mg/kg, po measured up to 24 hrs; assay type: ADME, organism-based; conditions: in vivo
[28] = system: KOPTK1; assay: Downregulation of CSK in human KOPT-K1 cells measured for 6 hrs by tandem mass tag proteomic assay; assay type: functional, cell-based
[29] = AUClast in CD-1 mouse at 3 mg/kg, iv measured up to 24 hrs; assay type: ADME, organism-based; conditions: in vivo
[30] = system: KOPTK1; assay: Downregulation of EPHB1 in human KOPT-K1 cells measured for 6 hrs by tandem mass tag proteomic assay; assay type: functional, cell-based
[31] = Tmax in CD-1 mouse at 30 mg/kg, po measured up to 24 hrs; assay type: ADME, organism-based; conditions: in vivo
[32] = target: T1, Protein cereblon/Tyrosine-protein kinase Lck; assay: PROTAC activity at HiBit-tagged LCK/CRBN in human KOPT-K1 cells assessed as induction of LCK degradation incubated for 6 hrs by Western blot analysis; assay type: cell-based
Target sequence in this assay (P06239 whole entry): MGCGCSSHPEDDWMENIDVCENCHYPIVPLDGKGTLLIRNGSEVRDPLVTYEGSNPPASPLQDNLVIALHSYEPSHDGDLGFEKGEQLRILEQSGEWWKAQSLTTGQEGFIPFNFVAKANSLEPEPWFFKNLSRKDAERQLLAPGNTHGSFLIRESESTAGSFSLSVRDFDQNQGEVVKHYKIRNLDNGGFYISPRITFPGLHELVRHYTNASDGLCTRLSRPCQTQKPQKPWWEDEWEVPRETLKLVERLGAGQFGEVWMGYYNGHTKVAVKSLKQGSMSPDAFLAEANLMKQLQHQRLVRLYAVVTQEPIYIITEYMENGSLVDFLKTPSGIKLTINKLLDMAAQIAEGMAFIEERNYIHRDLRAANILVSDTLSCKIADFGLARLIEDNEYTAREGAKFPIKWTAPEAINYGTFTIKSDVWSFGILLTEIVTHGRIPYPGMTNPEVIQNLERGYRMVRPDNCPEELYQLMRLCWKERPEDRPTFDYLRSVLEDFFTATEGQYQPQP
Target sequence in this assay (Q96SW2 whole entry): as the sequence (Q96SW2 whole entry partner) above

[33] = AUClast in CD-1 mouse at 30 mg/kg, po measured up to 24 hrs; assay type: ADME, organism-based; conditions: in vivo
[34] = Volume of distribution at steady state in CD-1 mouse at 30 mg/kg, po measured up to 24 hrs; assay type: ADME, organism-based; conditions: in vivo
[35] = Drug concentration in CD-1 mouse plasma at 30 mg/kg, po measured after 4 hrs by UPLC-MS/MS analysis; assay type: ADME, organism-based
[36] = Clearance in CD-1 mouse at 3 mg/kg, iv measured up to 24 hrs; assay type: ADME, organism-based; conditions: in vivo
[37] = system: KOPTK1; assay: Antiproliferative activity against human KOPT-K1 cells assessed as inhibition of cell growth at 100 nM measured for 280 hrs by celltiter glo assay; assay type: functional, cell-based
[38] = system: Mus musculus; assay: In-vivo PROTAC activity at LCK/CRBN in NOD Cg-Prkdc scid Il2rg tmIWjl (NSG) mouse model assessed as reduction in LCK level in Bone marrow at 30 mg/kg, po measured for 24 hrs by Western blot analysis; assay type: functional; parameters: scale not given: the % may be the effect or the level left
[39] = system: KOPTK1; assay: Antiproliferative activity against human KOPT-K1 cells assessed as inhibition of cell growth at 100 nM measured for 18 hrs by celltiter glo assay; assay type: functional, cell-based
[40] = Oral bioavailability in CD-1 mouse at 10 mg/kg measured up to 24 hrs by LC-MS/MS analysis; assay type: ADME, organism-based; conditions: in vivo
[41] = Clearance in CD-1 mouse at 3 mg/kg, iv measured up to 24 hrs by LC-MS/MS analysis; assay type: ADME, organism-based; conditions: in vivo

Q: What does the source list for `Cc1nc(Nc2ncc(C(=O)Nc3c(C)cccc3Cl)s2)cc(N2CCC(CN3CCN(c4ccc(C5CCC(=O)N(C)C5=O)cc4)CC3)CC2)n1` (configuration not stated)?
A: Activity [1]: inactive; CC50 [2]: 1.98 nM

Q: Which half-life [3] does the source give for `Cc1nc(Nc2ncc(C(=O)Nc3c(C)cccc3Cl)s2)cc(N2CCN(CCCC(=O)N3CCN(c4ccc(C5CCC(=O)NC5=O)cc4)CC3)CC2)n1` (configuration not stated) here?
A: The half-life was 63.6 min.

Q: What about the Emax [4] of the same compound?
A: The Emax was 93%.

Q: And the solubility at 18 h [5]?
A: Its solubility at 18 h is 0.15 µM (≈ 0.118 µg/mL).

Q: With `Cc1nc(Nc2ncc(C(=O)Nc3c(C)cccc3Cl)s2)cc(N2CCN(CCCC(=O)N3CC4CC3CN4c3ccc(C4CCC(=O)NC4=O)cc3)CC2)n1` (configuration not stated) as the compound, how does the half-life [3] read?
A: The half-life was 19.2 min.

Q: What about the Emax [4] of the same compound?
A: The Emax was 90%.

Q: And the solubility at 18 h [5]?
A: Its solubility at 18 h is 0.19 µM (≈ 0.152 µg/mL).

Q: What does the source list for `Cc1nc(Nc2ncc(C(=O)Nc3c(C)cccc3Cl)s2)cc(N2CCC3(CCN(c4ccc(C5CCC(=O)NC5=O)cc4)CC3)CC2)n1` (configuration not stated)?
A: half-life [3]: 132 min; Emax [4]: < 60%

Q: Which DC50 [1] does the source give for `Cc1nc(Nc2ncc(C(=O)Nc3c(C)cccc3Cl)s2)cc(N2CCN(CCN3CCN(c4ccc(C5CCC(=O)NC5=O)cc4)CC3)CC2)n1` (configuration not stated) here?
A: Its DC50 is 53 nM.

Q: What about the half-life [3] of the same compound?
A: Its half-life is 240 min.

Q: And the Emax [4]?
A: Its Emax is 62%.

Q: And the solubility at 18 h [5]?
A: Its solubility at 18 h is 1.87 µM (≈ 1.39 µg/mL).

Q: Which half-life [3] does the source give for `Cc1nc(Nc2ncc(C(=O)Nc3c(C)cccc3Cl)s2)cc(N2CCN(CCCC(=O)N3CCC4(CC3)CCN(c3ccc(C5CCC(=O)NC5=O)cc3)CC4)CC2)n1` (configuration not stated) here?
A: The half-life was 72 min.

Q: What about the Emax [4] of the same compound?
A: The Emax was 86%.

Q: What about the solubility at 18 h [5] of the same compound?
A: The solubility at 18 h was 1.5 µM (≈ 1.28 µg/mL).

Q: Which half-life [3] does the source give for `Cc1nc(Nc2ncc(C(=O)Nc3c(C)cccc3Cl)s2)cc(N2CCN(CC3CCN(c4ccc(C5CCC(=O)NC5=O)cc4)CC3)CC2)n1` (configuration not stated) here?
A: The half-life was 210 min.

Q: And the Emax [4]?
A: The Emax was less than 60%.

Q: Which results are given for `Cc1nc(Nc2ncc(C(=O)Nc3c(C)cccc3Cl)s2)cc(N2CCC(CN3CCN(c4ccc(C5CCC(=O)NC5=O)cc4)CC3)CC2)n1` (configuration not stated)?
A: Activity [6]: Active; bioavailability [7]: 58%; Activity [8]: inactive; Activity [9]: Active; half-life [10]: 183 min; half-life [11]: 2710 min; DC50 [1]: 17.5 nM; Activity [12]: inactive; Emax [13]: 98%; Activity [14]: 10%; Vd [15]: 3.51 L/kg; half-life [3]: 120 min; Activity [16]: inactive; Activity [17]: inactive; Cmax [18]: 2240 ng/mL; Activity [19]: inactive; Papp B→A [20]: 1.13 ×10⁻⁶ cm/s; efflux ratio [21]: 3.75; Papp A→B [22]: 0.302 ×10⁻⁶ cm/s; Activity [23]: inactive; Cmax [24]: 1450 ng/mL; half-life [25]: 211 min; Activity [26]: inactive; CC50 [2]: 20.1 nM; CL/F [27]: 24 mL/min/kg; Activity [28]: Active; AUC(0-t) at 24 h [29]: 3560 ng·h/mL; Activity [30]: Active; Tmax [31]: 1 h; DC50 [32]: 1.21 nM; Emax [4]: 77%; AUC(0-t) at 24 h [33]: 20700 ng·h/mL; Vdss [34]: 6.34 L/kg; concentration at 4 h [35]: 3290 ng/mL; clearance [36]: 14 mL/min/kg; Activity [37]: Active; Activity [38]: 5%; Activity [39]: Active

Q: What does the source list for `Cc1nc(Nc2ncc(C(=O)Nc3c(C)cccc3Cl)s2)cc(N2CCN(CCCN3CCN(Cc4ccc(C5CCC(=O)NC5=O)cc4)CC3)CC2)n1` (configuration not stated)?
A: half-life [11]: 1800 min; DC50 [1]: 4.48 nM; bioavailability [40]: 3.1%; half-life [3]: 600 min; Papp B→A [20]: 13.3 ×10⁻⁶ cm/s; efflux ratio [21]: 11.6; Papp A→B [22]: 1.15 ×10⁻⁶ cm/s; clearance [41]: 169 mL/min/kg; Emax [4]: 84%; solubility at 18 h [5]: 7.54 µM (≈ 5.82 µg/mL)
